pIC50: −log10 of the molar value. ≈ marks a conversion by molar mass, not a printed value. Numbered stars: 1 amine (or outer) side, 2 acyl side, 3 side chain; on linkers, the order of the positions; unused ones are H or OH. Peptide text beside a SMILES is read from it. * marks the point of attachment. C20 diacid = O=C(O)CCCCCCCCCCCCCCCCCCC(=O)*; γGlu = O=C(O)[C@H](CCC(=O)[*:2])N[*:1]
How the values were obtained:
[1] = Assay (IV) determination of solubility; format: physicochemical
Method: Assay (IV)—Determination of Solubility
The mimylin peptide was dissolved in water at ˜500 nmol/ml and mixed 1:1 with a series of buffers (100 mM glycylglycine pH 3.0, 100 mM glycylglycine pH 4.0, 100 mM glycylglycine pH 5.0, 100 mM bistrispropane pH 6.0, 100 mM bistrispropane pH 6.5, 100 mM bistrispropane pH 7.0, 100 mM bistrispropane pH 7.5, 100 mM bistrispropane pH 8.0).

[2] = molecular target: T1, rat calcitonin receptor (Rattus norvegicus, UniProt P32214); assay: Assay (VIII) binding to the rat calcitonin receptor; conditions: membranes; read-out: rCT-R binding IC50
T1 construct: expressed in transfected cells; host or cells: BHK tk'ts 13 (transient, FuGENE 6)
T1 sequence (P32214 25-479 isoform P32214-2 limits assumed): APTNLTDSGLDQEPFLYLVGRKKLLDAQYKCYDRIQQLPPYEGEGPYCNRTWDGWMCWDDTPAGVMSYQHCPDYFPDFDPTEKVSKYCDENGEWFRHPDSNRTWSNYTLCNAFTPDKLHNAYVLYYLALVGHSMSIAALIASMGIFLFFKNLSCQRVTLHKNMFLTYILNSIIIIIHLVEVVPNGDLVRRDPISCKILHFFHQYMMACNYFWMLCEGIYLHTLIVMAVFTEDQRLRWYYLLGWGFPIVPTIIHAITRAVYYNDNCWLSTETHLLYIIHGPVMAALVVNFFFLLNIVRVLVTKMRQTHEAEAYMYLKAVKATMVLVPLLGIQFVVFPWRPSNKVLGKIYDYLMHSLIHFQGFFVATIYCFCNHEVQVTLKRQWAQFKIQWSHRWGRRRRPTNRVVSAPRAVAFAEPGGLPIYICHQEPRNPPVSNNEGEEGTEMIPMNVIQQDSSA
How it was run: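 Competition binding on membranes from BHK tk'ts 13 cells transiently transfected with rat calcitonin receptor, otherwise run as the human receptor assay. Plates washed in cold HBSS, lysed in 0.1 M NaOH/1% SDS and scintillation-counted. IC50 from one-site competition fit as affinity measure.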

| Solubility ([1]; pH 3.0) | Solubility ([1]; pH 4.0) | solubility at 18 h ([1]; pH 5.0) [µM] | Solubility ([1]; pH 6.0) | Solubility ([1]; pH 6.5) | Solubility ([1]; pH 7.0) | Solubility ([1]; pH 7.5) | Solubility ([1]; pH 8.0) | pIC50 [2] | solubility at 18 h ([1]; pH 4.0) [µM] | Solubility ([1]; pH 5.0) | Structure (SMILES) |
| --- | --- | --- | --- | --- | --- | --- | --- | --- | --- | --- | --- |
| ≧200 μM | ≧200 μM | 7 (≈ 27.4 µg/mL) | ≧200 μM | ≧200 μM | ≧200 μM | ≧200 μM | ≧200 μM | 10.92 |  |  | CC(C)C[C@H](NC(=O)CNC(=O)[C@H](CO)NC(=O)[C@H](C)NC(=O)CC[C@H](NC(=O)CCCCCCCCCCCCCCCCCCC(=O)O)C(=O)O)C(=O)N[C@@H](CO)C(=O)N[C@H](C(=O)N[C@@H](C)C(=O)N[C@@H](C)C(=O)N[C@@H](CC(C)C)C(=O)NCC(=O)N[C@@H](CCCNC(=N)N)C(=O)N[C@@H](CC(C)C)C(=O)N[C@@H](CO)C(=O)N[C@@H](CCC(N)=O)C(=O)N[C@@H](CCC(=O)O)C(=O)N[C@@H](CC(C)C)C(=O)N[C@@H](Cc1cnc[nH]1)C(=O)N[C@@H](CCC(=O)O)C(=O)N[C@@H](CC(C)C)C(=O)N[C@@H](CCC(N)=O)C(=O)N[C@H](C(=O)N[C@@H](Cc1ccc(O)cc1)C(=O)N1CCC[C@H]1C(=O)N[C@@H](CCCNC(=N)N)C(=O)N[C@H](C(=O)N[C@@H](CCC(=O)O)C(=O)N[C@H](C(=O)NCC(=O)N[C@@H](CO)C(=O)N[C@@H](CCC(N)=O)C(=O)N[C@H](C(=O)N[C@@H](Cc1ccc(O)cc1)C(N)=O)[C@@H](C)O)[C@@H](C)O)[C@@H](C)O)[C@@H](C)O)[C@@H](C)O [compound 109, [N-terminal(C20 diacid-gGlu), des1, 4G, 15Q, 21Q, 23Y, 30S, 31Q, 32T, 33Y]mimylin] ({C20 diacid-γGlu}-ASGLSTAALGRLSQELHELQTYPRTETGSQTY-NH2) |
| ≧200 μM |  | 56 (≈ 221 µg/mL) | ≧200 μM | ≧200 μM | ≧200 μM | ≧200 μM | ≧200 μM | 10.80 | 170 (≈ 671 µg/mL) |  | CC(C)C[C@H](NC(=O)CNC(=O)[C@H](CO)NC(=O)[C@H](C)NC(=O)CC[C@H](NC(=O)CCCCCCCCCCCCCCCCCCC(=O)O)C(=O)O)C(=O)N[C@@H](CO)C(=O)N[C@H](C(=O)N[C@@H](C)C(=O)N[C@H](C(=O)N[C@@H](CC(C)C)C(=O)NCC(=O)N[C@@H](CCCNC(=N)N)C(=O)N[C@@H](CC(C)C)C(=O)N[C@@H](CO)C(=O)N[C@@H](CCC(N)=O)C(=O)N[C@@H](CCC(=O)O)C(=O)N[C@@H](CC(C)C)C(=O)N[C@@H](Cc1cnc[nH]1)C(=O)N[C@@H](CCC(=O)O)C(=O)N[C@@H](CC(C)C)C(=O)N[C@@H](CCC(N)=O)C(=O)N[C@H](C(=O)N[C@@H](Cc1ccc(O)cc1)C(=O)N1CCC[C@H]1C(=O)N[C@@H](CCCNC(=N)N)C(=O)N[C@H](C(=O)N[C@@H](CCC(=O)O)C(=O)N[C@H](C(=O)NCC(=O)N[C@@H](CO)C(=O)N[C@@H](CCC(N)=O)C(=O)N[C@H](C(=O)N[C@@H](Cc1ccc(O)cc1)C(N)=O)[C@@H](C)O)[C@@H](C)O)[C@@H](C)O)[C@@H](C)O)C(C)C)[C@@H](C)O [compound 119, [N-terminal(C20 diacid-gGlu), des1, 4G, 9V, 15Q, 21Q, 23Y, 30S, 31Q, 32T, 33Y]mimylin] ({C20 diacid-γGlu}-ASGLSTAVLGRLSQELHELQTYPRTETGSQTY-NH2) |
| ≧200 μM | ≧200 μM | 96 (≈ 400 µg/mL) | ≧200 μM | ≧200 μM | ≧200 μM | ≧200 μM | ≧200 μM | 10.57 |  |  | CC(C)C[C@H](NC(=O)CNC(=O)[C@H](CO)NC(=O)[C@H](C)NC(=O)COCCOCCNC(=O)COCCOCCNC(=O)CC[C@H](NC(=O)CCCCCCCCCCCCCCCCCCC(=O)O)C(=O)O)C(=O)N[C@@H](CO)C(=O)N[C@H](C(=O)N[C@@H](C)C(=O)N[C@H](C(=O)N[C@@H](CC(C)C)C(=O)NCC(=O)N[C@@H](CCCNC(=N)N)C(=O)N[C@@H](CC(C)C)C(=O)N[C@@H](CO)C(=O)N[C@@H](CCC(N)=O)C(=O)N[C@@H](CCC(=O)O)C(=O)N[C@@H](CC(C)C)C(=O)N[C@@H](Cc1cnc[nH]1)C(=O)N[C@@H](CCC(=O)O)C(=O)N[C@@H](CC(C)C)C(=O)N[C@@H](CCC(N)=O)C(=O)N[C@H](C(=O)N[C@@H](Cc1ccc(O)cc1)C(=O)N1CCC[C@H]1C(=O)N[C@@H](CCCNC(=N)N)C(=O)N[C@H](C(=O)N[C@@H](CCC(=O)O)C(=O)N[C@H](C(=O)NCC(=O)N[C@@H](CO)C(=O)NCC(=O)N[C@H](C(=O)N[C@@H](Cc1ccc(O)cc1)C(N)=O)[C@@H](C)O)[C@@H](C)O)[C@@H](C)O)[C@@H](C)O)C(C)C)[C@@H](C)O [compound 120, [N-terminal(C20 diacid-gGlu-2xOEG), des1, 4G, 9V, 15Q, 21Q, 23Y, 30S, 31G, 32T, 33Y]mimylin] |
| ≧200 μM | ≧200 μM | 110 (≈ 455 µg/mL) | ≧200 μM | ≧200 μM | ≧200 μM | ≧200 μM | ≧200 μM | 10.49 |  |  | CC(C)C[C@H](NC(=O)CNC(=O)[C@H](CO)NC(=O)[C@H](C)NC(=O)COCCOCCNC(=O)COCCOCCNC(=O)CC[C@H](NC(=O)CCCCCCCCCCCCCCCCC(=O)O)C(=O)O)C(=O)N[C@@H](CO)C(=O)N[C@H](C(=O)N[C@@H](C)C(=O)N[C@H](C(=O)N[C@@H](CC(C)C)C(=O)NCC(=O)N[C@@H](CCCNC(=N)N)C(=O)N[C@@H](CC(C)C)C(=O)N[C@@H](CO)C(=O)N[C@@H](CCC(N)=O)C(=O)N[C@@H](CCC(=O)O)C(=O)N[C@@H](CC(C)C)C(=O)N[C@@H](Cc1cnc[nH]1)C(=O)N[C@@H](CCC(=O)O)C(=O)N[C@@H](CC(C)C)C(=O)N[C@@H](CCC(N)=O)C(=O)N[C@H](C(=O)N[C@@H](Cc1ccc(O)cc1)C(=O)N1CCC[C@H]1C(=O)N[C@@H](CCCNC(=N)N)C(=O)N[C@H](C(=O)N[C@@H](CCC(=O)O)C(=O)N[C@H](C(=O)NCC(=O)N[C@@H](CO)C(=O)NCC(=O)N[C@H](C(=O)N[C@@H](Cc1ccc(O)cc1)C(N)=O)[C@@H](C)O)[C@@H](C)O)[C@@H](C)O)[C@@H](C)O)C(C)C)[C@@H](C)O [compound 121, [N-terminal(C18 diacid-gGlu-2xOEG), des1, 4G, 9V, 15Q, 21Q, 23Y, 30S, 31G, 32T, 33Y]mimylin] |
| ≧200 μM |  |  | ≧200 μM | ≧200 μM | ≧200 μM | ≧200 μM | ≧200 μM | 10.55 | 25 (≈ 95.5 µg/mL) | ≧200 μM | CC(C)C[C@H](NC(=O)CNC(=O)[C@H](CO)NC(=O)[C@H](C)NC(=O)CC[C@H](NC(=O)CCCCCCCCCCCCCCCCCCC(=O)O)C(=O)O)C(=O)N[C@@H](CO)C(=O)N[C@H](C(=O)N[C@@H](C)C(=O)N[C@H](C(=O)N[C@@H](CC(C)C)C(=O)NCC(=O)N[C@@H](CCCNC(=N)N)C(=O)N[C@@H](CC(C)C)C(=O)N[C@@H](CO)C(=O)N[C@@H](CCC(N)=O)C(=O)N[C@@H](CCC(=O)O)C(=O)N[C@@H](CC(C)C)C(=O)N[C@@H](Cc1cnc[nH]1)C(=O)N[C@@H](CCC(=O)O)C(=O)N[C@@H](CC(C)C)C(=O)N[C@@H](CCC(N)=O)C(=O)N[C@H](C(=O)N[C@@H](Cc1ccc(O)cc1)C(=O)N1CCC[C@H]1C(=O)N1CCC[C@H]1C(=O)N[C@H](C(=O)N[C@@H](CCC(=O)O)C(=O)N[C@H](C(=O)NCC(=O)N[C@@H](CO)C(=O)NCC(=O)N[C@H](C(=O)N[C@@H](Cc1ccc(O)cc1)C(N)=O)[C@@H](C)O)[C@@H](C)O)[C@@H](C)O)[C@@H](C)O)[C@@H](C)O)[C@@H](C)O [compound 128, [N-terminal(C20 diacid-gGlu), des1, 4G, 9T, 15Q, 21Q, 23Y, 25P, 30S, 31G, 32T, 33Y]mimylin] ({C20 diacid-γGlu}-ASGLSTATLGRLSQELHELQTYPPTETGSGTY-NH2) |

Source: patent US9593149B2, “Amylin and calcitonin receptor agonist” (Novo Nordisk A/S, priority 2014, dated 2017)
